A short description of data set [1]: physchem. The format is physicochemical. The source says: The following data and examples serve to illustrate the invention.
The test system of data set [2] is malarial infections. To be noted: in words, background; cited from earlier work.
For data set [3] the following is noted: in words, background; cited from earlier work.
For data set [4] the following is noted: in words, background; cited from earlier work. The source holds these as a separate data set.

Counter-ions that a name gives are not always drawn.

With `CCCCN(CCCC)CCC(O)c1cc2c(Cl)cc(Cl)cc2c2cc(C(F)(F)F)ccc12` (centres unmarked) [amorphous halofantrine free base], the solubility in data set [1] (peanut oil, organic solvent or mixture, miscible/soluble with peanut oil) is greater than 400000 µg/mL.
Regarding `CCCCN(CCCC)CCC(O)c1cc2c(Cl)cc(Cl)cc2c2cc(C(F)(F)F)ccc12` (centres unmarked) [crystalline halofantrine free base], in data set [1] (triglycerides, organic solvent or mixture, solubility in triglycerides), the solubility was greater than 80000 µg/mL.
Consider `CCCCN(CCCC)CCC(O)c1cc2c(Cl)cc(Cl)cc2c2cc(C(F)(F)F)ccc12` (centres unmarked) [halofantrine free base], for which the “lipid solubility and miscibility” value in data set [1] is recorded as “unexpectedly high”.
In the case of `CCCCN(CCCC)CCC(O)c1cc2c(Cl)cc(Cl)cc2c2cc(C(F)(F)F)ccc12` (centres unmarked) [halofantrine hydrochloride], in data set [2], the “effectiveness in the treatment of malarial infections” value is given as “very effective”. Also, the “aqueous and lipid solubility” value in data set [3] is “poor”. The “absorption after oral administration” value in data set [4] is “poor and often variable”. The solubility in data set [1] (aqueous solutions, solubility in aqueous solutions) is roughly 1 µg/mL; in data set [1] (peanut oil, organic solvent or mixture, solubility in a triglyceride lipid such as peanut oil), less than 1000 µg/mL.

Broadly, the solubility is the dissolved amount per volume that the medium holds.

Values taken from US5968987A, “Halofantrine free base for the treatment of malaria and compositions” (priority 1994, dated 1999).
